In publication PMC5845353, “The selective cathepsin K inhibitor MIV-711 attenuates joint pathology in experimental animal models of osteoarthritis” (Journal of Translational Medicine, 2018):

Experiments:
[1] = test system: rabbits subjected to anterior cruciate ligament transection (ACLT); assay: Rabbit ACLT study, modified Mankin scoring; type: in vivo
Experimental: The femora and tibias were decalcified, embedded in paraffin, sectioned at 5-7 µm at two different levels separated by approximately 2 mm, and stained with safranin O and toluidine blue.
Both tibial plateaus and femoral condyles were subjected to semi-quantitative scoring using a modified Mankin scoring system. Slides were evaluated in animal ID order, i.e. in random order with respect to treatment, so that the reader was effectively blinded to treatment assignment.
Analysis was performed on the tibial plateaus and femoral condyles at two levels (Level 1 and 2) for each:
Group 1) sham + vehicle; Group 2) ACLT + vehicle; Group 3) ACLT + MIV-711, 30 µmol/kg (low dose) and Group 4) ACLT + MIV-711, 100 µmol/kg (high dose).

[2] = test system: dogs subjected to partial medial meniscectomy; assay: Dog partial medial meniscectomy study, cartilage area image analysis; type: in vivo
Experimental: In order to quantitate and compare the cartilage matrix preservation, cartilage area measurements were taken from the most severely affected section of each animal. In this section, the most severely affected area - generally zone 2 - is analyzed at 25x magnification. Photomicrographs were taken with a digital microscope camera, and analyzed with appropriate software. The following measurements were taken:
Total area from the tidemark to the surface (or projected surface in degenerated areas), extending from the axial to abaxial aspects of the medial tibial plateau zones in the most severely affected area (generally zone 2)
Area of non-viable matrix (cartilage with less than 50% chondrocytes, proteoglycan, and intact collagen) and no matrix within the total area of zone 2 or most severely affected area in the photomicrograph
Area of no matrix within the total area being analyzed
The area of non-viable matrix in zone under analysis was subtracted from the total area in the photomicrograph to get the area of viable matrix in this area, and the area of no matrix was subtracted from the total area to get the area of any matrix (collagen matrix with or without chondrocytes and proteoglycan). These two values were then compared back to the total area to derive the % viable area and the % any matrix in this area of greatest lesion severity, which were compared between groups.

[3] = Group 3: ACLT + MIV-711, 30 µmol/kg (low dose)
[4] = Group 4: ACLT + MIV-711, 100 µmol/kg (high dose)
[5] = individual animals of MIV-711 group, per section level (first line of animal, L2, L3)

## C#C[C@@H]1CN(C(=O)[C@H](CC(C)C)NC(=O)c2ccc(-c3nc(N4CCN(C)CC4)sc3F)cc2)[C@@H]2C(=O)CO[C@H]12 [MIV-711]
[1]; ACLT rabbits, 30 and 100 µmol/kg
  effect on Mankin scores: did not affect
[1]; [3]
  Total Mankin score Level 1+2_FC, mean: 58.86
  Total Mankin score Level 1+2_FC, median: 58.00
  Total Mankin score Level 1+2_LFC, mean: 21.14
  Total Mankin score Level 1+2_LFC, median: 17.00
  Total Mankin score Level 1+2_LTP, mean: 9.71
  Total Mankin score Level 1+2_LTP, median: 10.00
  Total Mankin score Level 1+2_MFC, mean: 37.71
  Total Mankin score Level 1+2_MFC, median: 43.00
  Total Mankin score Level 1+2_MTP, mean: 16.71
  Total Mankin score Level 1+2_MTP, median: 16.00
  Total Mankin score Level 1+2_TP, mean: 26.43
  Total Mankin score Level 1+2_TP, median: 26.00
  Total Mankin score Level 1_FC, mean: 32.14
  Total Mankin score Level 1_FC, median: 32.00
  Total Mankin score Level 1_LFC, mean: 12.00
  Total Mankin score Level 1_LFC, median: 10.00
  Total Mankin score Level 1_LTP, mean: 5.57
  Total Mankin score Level 1_LTP, median: 4.00
  Total Mankin score Level 1_MFC, mean: 20.14
  Total Mankin score Level 1_MFC, median: 23.00
  Total Mankin score Level 1_MTP, mean: 9.86
  Total Mankin score Level 1_MTP, median: 9.00
  Total Mankin score Level 1_TP, mean: 15.43
  Total Mankin score Level 1_TP, median: 16.00
  Total Mankin score Level 2_FC, mean: 26.71
  Total Mankin score Level 2_FC, median: 26.00
  Total Mankin score Level 2_LFC, mean: 9.14
  Total Mankin score Level 2_LFC, median: 7.00
  Total Mankin score Level 2_LTP, mean: 4.14
  Total Mankin score Level 2_LTP, median: 4.00
  Total Mankin score Level 2_MFC, mean: 17.57
  Total Mankin score Level 2_MFC, median: 20.00
  Total Mankin score Level 2_MTP, mean: 6.86
  Total Mankin score Level 2_MTP, median: 6.00
  Total Mankin score Level 2_TP, mean: 11.00
  Total Mankin score Level 2_TP, median: 12.00
[1]; [4]
  Total Mankin score Level 1+2_FC, mean: 49.71
  Total Mankin score Level 1+2_FC, median: 51.00
  Total Mankin score Level 1+2_LFC, mean: 21.14
  Total Mankin score Level 1+2_LFC, median: 21.00
  Total Mankin score Level 1+2_LTP, mean: 12.71
  Total Mankin score Level 1+2_LTP, median: 12.00
  Total Mankin score Level 1+2_MFC, mean: 28.57
  Total Mankin score Level 1+2_MFC, median: 27.00
  Total Mankin score Level 1+2_MTP, mean: 17.43
  Total Mankin score Level 1+2_MTP, median: 14.00
  Total Mankin score Level 1+2_TP, mean: 30.14
  Total Mankin score Level 1+2_TP, median: 27.00
  Total Mankin score Level 1_FC, mean: 25.43
  Total Mankin score Level 1_FC, median: 29.00
  Total Mankin score Level 1_LFC, mean: 10.57
  Total Mankin score Level 1_LFC, median: 10.00
  Total Mankin score Level 1_LTP, mean: 6.29
  Total Mankin score Level 1_LTP, median: 7.00
  Total Mankin score Level 1_MFC, mean: 14.86
  Total Mankin score Level 1_MFC, median: 15.00
  Total Mankin score Level 1_MTP, mean: 9.29
  Total Mankin score Level 1_MTP, median: 8.00
  Total Mankin score Level 1_TP, mean: 15.57
  Total Mankin score Level 1_TP, median: 16.00
  Total Mankin score Level 2_FC, mean: 24.29
  Total Mankin score Level 2_FC, median: 23.00
  Total Mankin score Level 2_LFC, mean: 10.57
  Total Mankin score Level 2_LFC, median: 10.00
  Total Mankin score Level 2_LTP, mean: 6.43
  Total Mankin score Level 2_LTP, median: 6.00
  Total Mankin score Level 2_MFC, mean: 13.71
  Total Mankin score Level 2_MFC, median: 13.00
  Total Mankin score Level 2_MTP, mean: 8.14
  Total Mankin score Level 2_MTP, median: 7.00
  Total Mankin score Level 2_TP, mean: 14.57
  Total Mankin score Level 2_TP, median: 14.00
[2]; group Mean
  Cartilage Area: % Any Matrix Area: 96%
  Cartilage Area: % Viable Area: 88%
[2]; [5]
  Cartilage Area: % Any Matrix Area: 100%
  Cartilage Area: % Viable Area: 100%
[2]; versus Vehicle
  Percent Inhibition, % Any Matrix Area: -11%
  Percent Inhibition, % Viable Area: 8%
